Assay results from patent US4202824A, “Physiologically active derivatives of esterastin” (Zaidan Hojin Biseibutsu Kagaku Kenkyu Kai, priority 1978, dated 1980).
Values after ≈ are worked out from the molar mass of the structure shown.

What was measured:
cholesterol esterase = cholesterol esterase inhibition, cholesterol acetate as substrate, liberated cholesterol determined; format: biochemical; conditions: 37° C., 3 minutes; for cholesterol esterase-inhibiting activity relative to the parent esterastin: printed as 3-fold and 20 times higher
From the text: Furthermore, the new compounds of this invention all have advantageously a remarkably higher activity of inhibiting cholesterol esterase than the parent esterastin.

pig pancreas esterase = test: esterase-inhibiting activity, crude pig pancreas lipase preparation with p-nitrophenyl acetate as substrate; format: biochemical; conditions: for ID50, dose giving 50% inhibition to esterase: p-nitrophenyl acetate substrate, pH 7.0, 20° C., 30 minutes, pure products; for IC50: pig pancreas esterase, p-nitrophenyl acetate as the substrate, read-out: level giving 50% inhibition of the esterase
Description: Thus, a commercially available, crude lipase preparation obtained from pig pancreas is dissolved to a concentration of 0.5% (by weight) in a 0.05M phosphate buffered solution (pH 7.0) containing 0.2% "Triton X-100" (a trade name of an emulsifier consisting of a polyethyleneglycol alkylphenylether, a product of Rohm & Haas Co., U.S.A.). This lipase solution (0.03 ml), 2.92 ml of 0.05 M phosphate buffered solution (pH 7.0) and 0.025 ml of a solution containing a sample of the new compound to be assayed are mixed together, and the resulting mixture (2.975 ml) is warmed at 20° C. for 3 minutes and then admixed with 0.025 ml of a solution containing 10 mg/ml of p-nitrophenyl acetate in methanol to start the reaction of p-nitrophenyl acetate with lipase. After the enzymatic reaction is effected at 20° C. for 30 minutes, absorbance (a) at 400 nm of the resulting reaction solution is measured. On the other hand, absorbance (b) at 400 nm of a control reaction solution obtained from the blank test using the 0.05M phosphate buffered solution not containing the new compound to be assayed is measured in the same way as above. Degree (%) of inhibition to esterase is calculated according to the following equation: [formula]

[1] = system: inflammation caused by carrageenin; conditions: background statement; cited from earlier work
cell-mediated immunity = conditions: background statement; cited from earlier work
storage stability = format: physicochemical
From the text: In contrast, the new compound, tetrahydroesterastin is fairly stable so that it can be stored in the form of a powder as such for a long time of 1 year or more without lowering its activity.

[2] = system: cells forming humoral antibody; conditions: background statement; cited from earlier work
[3] = system: esterase of pig pancrease; conditions: cited from earlier work

cholesterol esterase-inhibiting activity relative to the parent esterastin (cholesterol esterase) | ID50, dose giving 50% inhibition to esterase (pig pancreas esterase) | IC50 (pig pancreas esterase) | stability on storage (in words) (storage stability) | Structure (SMILES) | also measured
about 20 fold | 7 ng/mL (≈ 0.02 µM) | 0.02 µM | – | CCCCCC=CCC=CCC(O)CC1OC(=O)C1CCCCCC (centres unmarked) [3,5-di-hydroxy-2-hexylhexadeca-7,10-dienoic 1,3-lactone] | cholesterol esterase-inhibiting activity relative to tetrahydroesterastin (cholesterol esterase): about 7 times
– | 9 ng/mL (≈ 0.0254 µM) | 0.025 µM | – | CCCCCCCCCCCC(O)CC1OC(=O)C1CCCCCC (centres unmarked) [3,5-di-hydroxy-2-hexylhexadecanoic 1,3-lactone] | –
– | 0.2 ng/mL (≈ 0.000395 µM) | – | fairly unstable | CCCCCC=CCC=CCC(CC1OC(=O)C1CCCCCC)OC(=O)C(CC(N)=O)NC(C)=O (centres unmarked) [esterastin] | effect on inflammation caused by carrageenin [1]: inhibits the inflammation caused by carrageenin; effect on cell-mediated immunity (cell-mediated immunity): suppress the cell-mediated immunity; effect on number of cells forming humoral antibody [2]: reduce the number of the cells forming humoral antibody
– | – | – | – | CCOP(=O)(OCC)Oc1ccc([N+](=O)[O-])cc1 [paradoxon] | inhibition of the esterase of pig pancreas (in words) [3]: inhibit the esterase
about 3 fold | 3.3 ng/mL (≈ 0.00646 µM) | 0.0064 µM | fairly stable | CCCCCCCCCCCC(CC1OC(=O)C1CCCCCC)OC(=O)C(CC(N)=O)NC(C)=O (centres unmarked) [tetrahydroesterastin] | storage time as powder without lowering its activity (storage stability; stored in the form of a powder as such): ≥ 1 year
